# EPA's ToxValDB 9.5
# Key:
# Rattus norvegicus [1] = details: short-term, duration: 28 days, oral, gavage, Sprague-Dawley
# Rattus norvegicus [2] = details: subchronic; duration: 90 days; oral; diet; M/F; CD; Deaths + Body Weight Changes: decrease + Food Consumption: decrease + Hematology: RBC decrease, HGB decrease, HCT decrease, WBC decrease, …
structure (smiles),measurement,setting,value
O=S(=O)(O)C(F)(F)C(F)(F)C(F)(F)C(F)(F)C(F)(F)C(F)(F)C(F)(F)C(F)(F)F [Perfluorooctanesulfonic acid],LOEL,"Rattus norvegicus [1]; F, Organ weights_Lung - Relative",1.25 mg/kg-day
same,NOEL,"Rattus norvegicus [1]; F, Organ weights_R. adrenal gland - Absolute",5 mg/kg-day
same,NOEL,"Rattus norvegicus [1]; F, Organ weights_R. adrenal gland - Relative",5 mg/kg-day
same,NOEL,"Rattus norvegicus [1]; F, Organ weights_R. kidney - Absolute",5 mg/kg-day
same,NOEL,"Rattus norvegicus [1]; F, Organ weights_R. kidney - Relative",5 mg/kg-day
same,NOEL,"Rattus norvegicus [1]; F, Organ weights_Spleen - Absolute",5 mg/kg-day
same,NOEL,"Rattus norvegicus [1]; F, Organ weights_Spleen - Relative",5 mg/kg-day
same,LOEL,"Rattus norvegicus [1]; F, Organ weights_Thymus - Absolute",1.25 mg/kg-day
same,NOEL,"Rattus norvegicus [1]; F, Organ weights_Thymus - Relative",5 mg/kg-day
same,NOEL,"Rattus norvegicus [1]; F, Survival rates",5 mg/kg-day
same,LOEL,"Rattus norvegicus [1]; M, Clinical chemistry_Alanine aminotransferase",0.625 mg/kg-day
same,LOEL,"Rattus norvegicus [1]; M, Clinical chemistry_Albumin",5 mg/kg-day
same,LOEL,"Rattus norvegicus [1]; M, Clinical chemistry_Albumin/globulin ratio",5 mg/kg-day
same,LOEL,"Rattus norvegicus [1]; M, Clinical chemistry_Alkaline phosphatase",0.625 mg/kg-day
same,LOEL,"Rattus norvegicus [1]; M, Clinical chemistry_Aspartate aminotransferase",0.625 mg/kg-day
same,LOEL,"Rattus norvegicus [1]; M, Clinical chemistry_Cholesterol",0.312 mg/kg-day
same,LOEL,"Rattus norvegicus [1]; M, Clinical chemistry_Direct bilirubin",5 mg/kg-day
same,LOEL,"Rattus norvegicus [1]; M, Clinical chemistry_Free thyroxine",0.312 mg/kg-day
same,LOEL,"Rattus norvegicus [1]; M, Clinical chemistry_Globulin",5 mg/kg-day
same,NOEL,"Rattus norvegicus [1]; M, Clinical chemistry_Sorbitol dehydrogenase",5 mg/kg-day
same,NOEL,"Rattus norvegicus [1]; M, Clinical chemistry_Testosterone",5 mg/kg-day
same,NOEL,"Rattus norvegicus [1]; M, Clinical chemistry_Thyroid stimulating hormone",5 mg/kg-day
same,LOEL,"Rattus norvegicus [1]; M, Clinical chemistry_Total bile acids",5 mg/kg-day
same,NOEL,"Rattus norvegicus [1]; M, Clinical chemistry_Total bilirubin",5 mg/kg-day
same,NOEL,"Rattus norvegicus [1]; M, Clinical chemistry_Total protein",5 mg/kg-day
same,LOEL,"Rattus norvegicus [1]; M, Clinical chemistry_Total thyroxine",0.312 mg/kg-day
same,LOEL,"Rattus norvegicus [1]; M, Clinical chemistry_Total triiodothyronine",0.625 mg/kg-day
same,LOEL,"Rattus norvegicus [1]; M, Clinical chemistry_Triglycerides",5 mg/kg-day
same,LOEL,"Rattus norvegicus [1]; M, Gene expression_Acox1",1.25 mg/kg-day
same,LOEL,"Rattus norvegicus [1]; M, Gene expression_Acyl-CoA oxidase",2.5 mg/kg-day
same,LOEL,"Rattus norvegicus [1]; M, Gene expression_Cyp2b1",0.312 mg/kg-day
same,LOEL,"Rattus norvegicus [1]; M, Gene expression_Cyp2b2",0.312 mg/kg-day
same,LOEL,"Rattus norvegicus [1]; M, Gene expression_Cyp4a1",0.312 mg/kg-day
same,NOEL,"Rattus norvegicus [1]; M, Hematology_Erythrocytes",5 mg/kg-day
same,NOEL,"Rattus norvegicus [1]; M, Hematology_Hematocrit",5 mg/kg-day
same,NOEL,"Rattus norvegicus [1]; M, Hematology_Hemoglobin",5 mg/kg-day
same,LOEL,"Rattus norvegicus [1]; M, Hematology_Leukocytes",5 mg/kg-day
same,LOEL,"Rattus norvegicus [1]; M, Hematology_Reticulocytes",2.5 mg/kg-day
same,LOEL,"Rattus norvegicus [1]; M, Hematology_S. neutrophils",5 mg/kg-day
same,LOEL,"Rattus norvegicus [1]; M, Nonneoplastic effects_Bone marrow - Hypocellularity",1.25 mg/kg-day
same,NOEL,"Rattus norvegicus [1]; M, Nonneoplastic effects_Kidney - Papilla, necrosis",5 mg/kg-day
same,NOEL,"Rattus norvegicus [1]; M, Nonneoplastic effects_Liver - Hepatocyte, cytoplasmic alteration",5 mg/kg-day
same,LOEL,"Rattus norvegicus [1]; M, Nonneoplastic effects_Liver - Hepatocyte, hypertrophy",1.25 mg/kg-day
same,LOEL,"Rattus norvegicus [1]; M, Nonneoplastic effects_Liver - Hepatocyte, vacuolization cytoplasmic",2.5 mg/kg-day
same,NOEL,"Rattus norvegicus [1]; M, Nonneoplastic effects_Liver - Necrosis",5 mg/kg-day
same,NOEL,"Rattus norvegicus [1]; M, Nonneoplastic effects_Nose - Olfactory epithelium, degeneration",5 mg/kg-day
same,NOEL,"Rattus norvegicus [1]; M, Nonneoplastic effects_Nose - Olfactory epithelium, hyperplasia",5 mg/kg-day
same,NOEL,"Rattus norvegicus [1]; M, Nonneoplastic effects_Nose - Olfactory epithelium, inflammation, suppurative",5 mg/kg-day
same,NOEL,"Rattus norvegicus [1]; M, Nonneoplastic effects_Nose - Olfactory epithelium, necrosis",5 mg/kg-day
same,LOEL,"Rattus norvegicus [1]; M, Nonneoplastic effects_Spleen - Extramedullary hematopoiesis, decreased",1.25 mg/kg-day
same,NOEL,"Rattus norvegicus [1]; M, Nonneoplastic effects_Stomach, forestomach - Epithelium, hyperplasia",5 mg/kg-day
same,NOEL,"Rattus norvegicus [1]; M, Nonneoplastic effects_Thymus - Atrophy",5 mg/kg-day
same,LOEL,"Rattus norvegicus [1]; M, Organ weights_Heart - Absolute",5 mg/kg-day
same,NOEL,"Rattus norvegicus [1]; M, Organ weights_Heart - Relative",5 mg/kg-day
same,LOEL,"Rattus norvegicus [1]; M, Organ weights_Liver - Absolute",0.312 mg/kg-day
same,LOEL,"Rattus norvegicus [1]; M, Organ weights_Liver - Relative",0.312 mg/kg-day
same,NOEL,"Rattus norvegicus [1]; M, Organ weights_Lung - Absolute",5 mg/kg-day
same,NOEL,"Rattus norvegicus [1]; M, Organ weights_Lung - Relative",5 mg/kg-day
same,LOEL,"Rattus norvegicus [1]; M, Organ weights_R. adrenal gland - Absolute",1.25 mg/kg-day
same,NOEL,"Rattus norvegicus [1]; M, Organ weights_R. adrenal gland - Relative",5 mg/kg-day
same,NOEL,"Rattus norvegicus [1]; M, Organ weights_R. kidney - Absolute",5 mg/kg-day
same,NOEL,"Rattus norvegicus [1]; M, Organ weights_R. kidney - Relative",5 mg/kg-day
same,LOEL,"Rattus norvegicus [1]; M, Organ weights_Spleen - Absolute",1.25 mg/kg-day
same,NOEL,"Rattus norvegicus [1]; M, Organ weights_Spleen - Relative",5 mg/kg-day
same,LOEL,"Rattus norvegicus [1]; M, Organ weights_Thymus - Absolute",5 mg/kg-day
same,LOEL,"Rattus norvegicus [1]; M, Organ weights_Thymus - Relative",5 mg/kg-day
same,NOEL,"Rattus norvegicus [1]; M, Reproductive toxicity_Altered sperm parameters",5 mg/kg-day
same,NOEL,"Rattus norvegicus [1]; M, Survival rates",5 mg/kg-day
same,NOAEL,Rattus norvegicus [2],< 2.88 mg/kg-day
